Entries after “also recorded” stand apart in the source; their conditions may differ.

One test has as its system adult mouse spleen cells. Briefly: RANKL and M-CSF induced osteoclast formation from adult mouse spleen cells. It is filed as cell-based. As for the experimental part: (§1) In some instances, experiments were performed either with adult mouse spleen cells or with RAW264.7 cells treated with M-CSF and RANKL as described in Quinn et al., Endocrinology 139:4424-4427, 1998. Where indicated, these assays were conducted in the presence or absence of splenic T cells. T cell fractions were prepared as described in Horwood et al., Journal of Clinical Investigation 101:595-603, 1998.

For the next test, the system named is sFRP-1. Briefly: Competition ELISA: soluble peptides against peptide/AP chimera binding to sFRP-1. Set-up: species or system human. The protocol:
(§2) ELISA experiments were generally performed as previously described (Uren et al., J. Biol. Chem. 275:4374-4382, 2000), with modifications depending on the sFRP binding partner to be tested. Typically, wells were coated with 0.5 or 1 μg of sFRP-1, blocked with BSA (0.2%, 1%, or 4%) and then incubated with putative binding partner overnight at room temperature. When investigating the binding of peptide/AP chimeras, after aspiration of bacterial broths, wells were washed and incubated with p-nitrophenolphosphate (pNPP). Color development was determined at 405 nm with an ELISA reader. For competition experiments, soluble peptides were preincubated with peptide/AP chimeras in bacterial broth for 30 min at room temperature prior to transfer into ELISA wells coated with sFRP-1 or BSA. When testing RANKL binding to sFRP-1, serial dilutions of soluble RANKL were assayed in replicate. Following overnight incubation at room temperature, RANKL solutions were aspirated and bound RANKL was detected by sequential incubations with primary antibody to RANKL, secondary antibody coupled with AP and pNPP. Similar experimental designs were employed when other TNFα family members were examined for binding to sFRPs, and when sFRP-1 derivatives or sFRP-2 were the binding targets for RANKL.

In test [1] the test system is co-cultures of primary osteoblasts and adult spleen cells. Kind of test: Osteoclastogenesis co-culture of primary osteoblasts and adult spleen cells (TRAP+ cells). It is filed as cell-based, mouse. The conditions noted are these: for effect on TRAP+ multinucleated cells (osteoclast formation): 5 μg/mL with optimal doses of vitamin D3 (10^-8 M) and PGE2 (10^-7 M). The protocol:
Osteoblastic cells were prepared from the calvaria of newborn mice by digestion with 0.1% collagenase (Worthington Biochemical Co., Freefold, […]) and 0.2% dispase (Godo Shusei, Tokyo, Japan). […] Exp. Med. 182: 1461-1468, 1995). Osteoblastic cells were co-cultured with bone marrow or spleen cells as described previously (Udagawa et al., J. Exp. Med. 182: 1461-1468, 1995). In short, primary osteoblastic cells (2×10^4/well) and nucleated spleen cells (1×10^6/well) or marrow cells (5×10^5/well) were co-cultured in 48-well plates (Corning Glass Inc., Corning, N.Y.) with 0.4 mL of α-MEM (GIBCO/BRL, Grand Island, N.Y.) containing 10% fetal bovine serum (Cytosystems, Castle Hill, NSW, Australia) in the presence of test chemicals. Cultures were incubated in quadruplicate and cells were replenished on day 3 with fresh medium. Osteoclast formation was evaluated after culturing for 6-7 days. Adherent cells were fixed and stained for tartrate-resistant acid phosphatase (TRAP), and the number of TRAP-positive osteoclasts was scored as described (Udagawa et al., J. Exp. Med. 182: 1461-1468, 1995). For TRAP staining, adherent cells were fixed with 4% formaldehyde in PBS for 3 minutes. After treatment with ethanol-acetone (50/50, vol/vol) for 1 minute, the well surface was air dried and incubated for 10 minutes at room temperature in an acetate buffer (0.1 M sodium acetate, pH 5.0) containing 0.01% naphthol AS-MX phosphate (Sigma) as a substrate and 0.03% red violet LB salt (Sigma) as a stain for the reaction product in the presence of 50 mM sodium tartrate. TRAP-positive cells appeared dark red, and those with three or more nuclei were scored as multinucleated and considered as osteoclasts. Validation of osteoclast formation was achieved using the specific marker of calcitonin receptor (CTR) expression and bone resorption. CTR expression was determined either by autoradiography with ^125I-salmon calcitonin or by immunohistochemical localization using an array of antibodies we have developed as described by Quinn et al., Bone 25:1-8, 1999.

The subject of test [2] is RAW264.7 cells. Briefly: RANKL-induced osteoclast formation in RAW264.7 cells. It counts as cell-based. The protocol: as §1
(§3) The effect of bacterially expressed CRD was assessed in three different cell culture models of osteoclast formation. These were: (1) bone marrow cells+RANKL+M-CSF, (2) the macrophage/monocyte cell line RAW264.7+RANKL, and (3) RAW264.7+TNFα+TGFβ (Horwood et al., Journal of Immunology 166:4915-4921, 2001; Quinn et al., Journal of Bone and Mineral Research. 16, 1787-1794, 2001).

The target in another test is T1, RANKL (Homo sapiens, UniProt O14788).
T1 construct: For ELISA assays, recombinant soluble RANKL and TRAIL, and antibodies directed against these proteins were obtained from PeproTech; purchased PeproTech (Rocky Hill, N.J.)
T1 sequence (O14788 140-317): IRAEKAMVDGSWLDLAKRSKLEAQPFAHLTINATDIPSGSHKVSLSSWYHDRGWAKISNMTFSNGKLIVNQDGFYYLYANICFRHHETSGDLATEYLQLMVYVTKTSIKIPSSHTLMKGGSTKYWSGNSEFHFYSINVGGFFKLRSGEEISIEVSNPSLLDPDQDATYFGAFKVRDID
Kind of test: ELISA of soluble RANKL binding to wells coated with sFRP-1, sFRP-1 derivatives or sFRP-2. Particulars: ELISA, coated wells versus BSA. As for the experimental part: as §2
The possibility that sFRP-1 (SEQ ID NO: 3) and RANKL interact directly with each other was tested using an ELISA assay. […] RANKL was then incubated in these wells and in adjacent wells that had only been treated with BSA.

Test [3] deals with RAW264.7 cells. Briefly: RANKL-independent (TNFα-dependent) osteoclast formation in RAW264.7+TNFα+TGFβ. It is filed as cell-based. Particulars: RAW264.7+TNFα+TGFβ, RANKL-independent. As for the experimental part:
The effect of sFRP-1 was assessed upon a RANKL-independent method of osteoclast formation using the monocyte/macrophage cell line RAW264.7 (Quinn et al., Journal of Bone and Mineral Research. 16, 1787-1794, 2001) and was compared with that of osteoprotegerin (FIG. 14).
as §3

The test system of the next test is bone marrow cells. Briefly: Osteoclast formation in bone marrow cells+RANKL+M-CSF. It is filed as cell-based. As for the experimental part:
as §3

The test system of test [4] is AC2/alkaline phosphatase chimera. Kind of test: ELISA of sFRP-1 deletion mutants binding to AC2/alkaline phosphatase chimera. Particulars: sFRP-1 deletion mutants coated on ELISA wells. As for the experimental part: as §2, with “When testing RANKL binding to sFRP-1, serial dilutions of soluble RANKL were assayed in replicate.” left out, “Similar experimental designs were employed when other TNFα family members were examined for binding to sFRPs, and when sFRP-1 derivatives or sFRP-2 were the binding targets for RANKL.” left out
ELISA experiments were performed essentially as described above with a series of sFRP-1 deletion mutants (in Uren et al., J. Biol. Chem., 275: 4374-4382, 2000) to determine what region(s) of the protein were required for binding to the AC2/alkaline phosphatase chimera. […] Little binding was detected with derivatives that contained the CRD alone or the C-terminal region alone.

As for QGTLVDGRWLQL [A-C2], the “effect on osteoclast formation, T cells removed” value with adult mouse spleen cells (T cells removed from adult spleen cells with antibody-coupled magnetic beads) is “no additional response”. Also, the “effect on osteoclast production” value with adult mouse spleen cells (peptide present during days 0-3, RANKL 50 ng/mL and M-CSF 25 ng/mL) is “caused an increase in osteoclast production”. For the same molecule, the “inhibition of A-D9/AP chimera binding to sFRP-1” value in the test with sFRP-1 (soluble peptide) is reported as “could inhibit binding”. For the same molecule, the “inhibition of A-C2/alkaline phosphatase fusion protein binding to sFRP-1” value in the test with sFRP-1 (soluble peptide preincubated 30 min with chimera) was “dose-dependent inhibition”. Besides, the “effect on TRAP+ multinucleated cells (osteoclast formation)” value in test [1] was “ten-fold increase; also recorded: markedly stimulated”. For the same molecule, the “time window of the effect on osteoclast formation” value in test [1] (peptide present for different periods of the culture) is on record as “only had an effect on osteoclast formation when it was present during day 0 to day 3”. Further, in the test on RAW264.7 cells [2] (RANKL 50 ng/mL, T cells added, 5, 1 and 0.5 μg/mL), the “stimulation of TRAP+ multinucleated cell differentiation” value was “dose-dependent stimulation”.

B1: NHD: netrin homology domain of sFRP-1 (protein, listed as Homo sapiens)
chain: CIAMTPPNATEASKPQGTTVCPPCDNELKSEAIIEHLCASEFALRMKIKEVKKENGDKKIVPKKKKPLKLGPIKKKDLKKLVLYLKNGADCPCHQLDNLSHHFLIMGRKVKSQYLLTAIHKWDKKNKEFKNFMKKMKNHEC
For B1, the “effect on TRAP+ multinucleated cells (osteoclast formation)” value in test [1] is reported as “not further enhanced”.

B2: bacterially expressed CRD: cysteine-rich domain of sFRP-1, residues 38-166, expressed in bacteria (protein)
chain: FQSDIGPYQSGRFYTKPPQCVDIPADLRLCHNVGYKKMVLPNLLEHETMAEVKQQASSWVPLLNKNCHAGTQVFLCSLFAPVCLDRPIYPCRWLCEAVRDSCEPVMQFFGFYWPEMLKCDKFPEGDVCI
As for B2, in the test with RANKL, the “binding to RANKL” value is reported as “strong”. For the same molecule, the “effect on osteoclast formation” value is “mimicked the action of full-length sFRP-1 and with similar potency” with RAW264.7 cells [3]; “mimicked the action of full-length sFRP-1 and with similar potency” in the test on RAW264.7 cells [2] (RAW264.7+RANKL); “mimicked the action of full-length sFRP-1 and with similar potency” with bone marrow cells.

B3: Δ3 derivative: sFRP-1 deletion mutant containing all of the Fz CRD and a portion of the C-terminal region (protein)
chain: MGIGRTEGGRRGAALGVLLALGGASGRGLGSEYDYVSFQSDIGPYQSGRFYTKPPQCVDIPADLRLCHNVGYKKMVLPNLLEHETMAEVKQQASSWVPLLNKNCHAGTQVFLCSLFAPVCLDRPIYPCRWLCEAVRDSCEPVMQFFGFYWPEMLKCDKFPEGDVCIAMTPPNATEASKPQGTTVCPPCDNELKSEAIIEHLCASEFALRMKIKEVKKENGDKKIVPKKKKPLKLGPIKKKDLQAYVEQKLISEEDLNSAVDHHHHHH
modifications: Fusion protein
notes: sFRP-1 deletion mutant containing all of the Fz CRD and a portion of the C-terminal region
In the case of B3, the “binding to the AC2/alkaline phosphatase chimera” value in test [4] is “Optimal binding”.

Values taken from patent US8334260B2, “sFRP and peptide motifs that interact with sFRP and methods of their use” (The United States of America as represented by the …, priority 2001, dated 2012).
